# According to patent US8399482B2, “6-substituted isoquinolines and isoquinolinones” (Sanofi, priority 2008, dated 2013):
# Tests used:
# Assay type in all cases: biochemical
# [1] = molecular target: T1, human recombinant ROCK II (Homo sapiens, UniProt O75116); test: Determination of Rho kinase inhibition (ROCK II, Caliper peptide phosphorylation assay); conditions: respective form (salt or free base) as obtained in the examples, 60 min at 32° C.
# T1 construct: recombinant human ROCK-II residues 11-552; His6 (N); purchased Millipore GmbH, Schwalbach, Germany
# Description: To measure Rho-kinase inhibition, IC50 values were determined according to the following protocol:
# Active human recombinant ROCK II (N-terminal His6-tagged recombinant human ROCK-II residues 11-552) was purchased from Millipore GmbH, Schwalbach, Germany. The peptide substrate, Fluorescein-[…]-COOH, was obtained from JPT Peptide Technologies, Berlin, Germany. Adenosine-5′-triphosphate (ATP), bovine serum albumine (BSA), dimethylsulphoxide (DMSO), 4-(2-hydroxyethyl)piperazine-1-ethanesulfonic acid (Hepes), Brij-35, dithiothreitol (DTT) and Pluronic F-68 were purchased from Sigma-Aldrich, Munich, Germany. Tris(hydroxymethyl)-aminomethane (Tris), magnesium chloride, NaOH, 1M HCl and EDTA were obtained from Merck Biosciences, Darmstadt, Germany. “Complete” protease inhibitor was from Roche Diagnostics, Mannheim, Germany. Test compounds were diluted to the appropriate concentrations in buffer 1 (25 mM Tris-HCl, pH 7.4, 5 mM MgCl2, 2 mM DTT, 0.02% (w/v) BSA, 0.01% Pluronic F-68 and 3% DMSO). The ROCK II enzyme was diluted to a concentration of 100 ng/mL in buffer 2 (25 mM Tris-HCl, pH 7.4, 5 mM MgCl2, 2 mM DTT and 0.02% (w/v) BSA). The peptide substrate and ATP were diluted to concentrations of 3 μM and 120 μM, respectively, in the buffer 2. Two μl of the compound solution were mixed with 2 μl of the diluted enzyme in a 384-well small volume microtiter plate (Greiner, Bio-One, Frickenhausen, Germany), and the kinase reaction was initiated by addition of 2 μl of the solution containing peptide substrate and ATP. After 60 min incubation at 32° C., the reaction was stopped by addition of 20 μl of a solution containing 100 mM Hepes-NaOH, pH 7.4, 0.015% (v/v) Brij-35, 45 mM EDTA and 0.227% chip coating reagent 1 (Caliper Lifescience Inc, Hopkinton, Mass.). Phosphorylation of the substrate peptide was then detected on a Caliper 3000 instrument essentially as described by Pommereau et al (J. Biomol. Screening 2004, 9(5), 409-416). Separation conditions were as follows: Pressure −1.3 psi, upstream voltage −1562 V, downstream voltage −500 V, sample sip time 200 ms. Positive controls (buffer 1 instead of compound) and negative controls (buffer 1 instead of compound and buffer 2 instead of ROCK II) were run in parallel on each plate.
# The following products/compounds were tested in said assay by using the respective form (salt or free base) obtained as in the examples described above and the following activities were measured
# recombinant human PKA = molecular target: T2, recombinant human PKA (Homo sapiens, UniProt P17612); test: Determination of Protein Kinase A inhibition (selectivity); conditions: from IC50 values
# T2 construct: recombinant human PKA (residues 1-351, N-terminal His-tag); His-tag (N); purchased Invitrogen, Karlsruhe, Germany
# Description: (§1) 2) Determination of Protein Kinase a and Protein Kinase G Inhibition
# (§2) To measure PKA and PKG1-beta inhibition, IC50 values were determined according to the following protocol:
# (§3) Active recombinant human PKG1-beta (full-length, with N-terminal His-tag) was purchased from Millipore GmbH, Schwalbach, Germany. Active recombinant human PKA (residues 1-351, N-terminal His-tag) was obtained from Invitrogen, Karlsruhe, Germany. The peptide substrate, Fluorescein-[…]-COOH, was obtained from JPT Peptide Technologies, Berlin, Germany. Adenosine-5′-triphosphate (ATP), bovine serum albumine (BSA), dimethylsulphoxide (DMSO), 4-(2-Hydroxyethyl)piperazine-1-ethanesulfonic acid (Hepes), Brij-35, dithiothreitol (DTT) and Pluronic F-68 were purchased from Sigma-Aldrich, Munich, Germany. Tris(hydroxymethyl)-aminomethane (Tris), magnesium chloride, NaOH, 1M HCl and EDTA were obtained from Merck Biosciences, Darmstadt, Germany. “Complete” protease inhibitor was from Roche Diagnostics, Mannheim, Germany. Test compounds were diluted to the appropriate concentrations in buffer 1 (25 mM Tris-HCl, pH 7.4, 5 mM MgCl2, 2 mM DTT, 0.02% (w/v) BSA, 0.01% Pluronic F-68 and 3% DMSO). PKG1-beta and PKA were diluted to concentrations of 150 ng/ml and 30 ng/ml, respectively, in buffer 2. The peptide substrate and ATP were diluted to concentrations of 3 μM and 120 μM, respectively, in the buffer 2. Two μl of the compound solution were mixed with 2 μl of the diluted enzyme in a 384-well small volume microtiter plate (Greiner, Bio-One, Frickenhausen, Germany), and the kinase reaction was initiated by addition of 2 μl of the solution containing peptide substrate and ATP. After 60 min incubation at 32° C., the reaction was stopped by addition of 20 μl of a solution containing 100 mM Hepes-NaOH, pH 7.4, 0.015% (v/v) Brij-35, 45 mM EDTA and 0.227% chip coating reagent 1 (Caliper Lifescience Inc, Hopkinton, Mass.). Phosphorylation of the substrate peptide was then detected on a Caliper 3000 instrument essentially as described by Pommereau et al (J. Biomol. Screening 9(5), 409-416, 2004). Separation conditions were as follows: Pressure −1.3 psi, upstream voltage −1562 V, downstream voltage −500 V, sample sip time 200 ms, Positive controls (buffer 1 instead of compound) and negative controls (buffer 1 instead of compound and buffer 2 instead of kinase solution) were run in parallel on each plate. The following products/compounds were tested in said assay by using the respective form (salt or free base) obtained as in the examples described above and the following activities were measured.
# [2] = molecular target: T3, recombinant human PKG1-beta (Homo sapiens, UniProt Q13976); test: Determination of Protein Kinase G inhibition (selectivity); conditions: from IC50 values
# T3 construct: PKG1-beta (full-length, with N-terminal His-tag); His-tag (N); purchased Millipore GmbH, Schwalbach, Germany
# T3 sequence (Q13976 1-686 isoform Q13976-2): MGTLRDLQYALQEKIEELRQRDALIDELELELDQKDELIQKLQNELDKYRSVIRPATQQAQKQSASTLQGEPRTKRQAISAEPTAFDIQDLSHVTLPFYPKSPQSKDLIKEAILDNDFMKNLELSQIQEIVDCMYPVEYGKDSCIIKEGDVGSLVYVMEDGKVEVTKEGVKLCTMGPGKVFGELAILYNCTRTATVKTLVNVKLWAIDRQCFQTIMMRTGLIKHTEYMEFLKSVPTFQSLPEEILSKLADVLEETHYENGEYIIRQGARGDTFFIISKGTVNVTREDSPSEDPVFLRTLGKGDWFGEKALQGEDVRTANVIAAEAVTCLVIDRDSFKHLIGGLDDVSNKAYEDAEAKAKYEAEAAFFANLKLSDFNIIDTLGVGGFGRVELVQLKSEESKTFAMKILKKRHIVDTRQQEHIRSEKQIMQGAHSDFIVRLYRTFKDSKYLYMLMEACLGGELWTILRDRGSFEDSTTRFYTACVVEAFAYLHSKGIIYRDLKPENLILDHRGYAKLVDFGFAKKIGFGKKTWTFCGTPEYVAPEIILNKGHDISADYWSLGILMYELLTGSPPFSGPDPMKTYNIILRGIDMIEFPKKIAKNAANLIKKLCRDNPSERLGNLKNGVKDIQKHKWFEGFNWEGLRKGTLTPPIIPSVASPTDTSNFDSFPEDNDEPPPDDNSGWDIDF
# Description: as §1, §2, §3
# T1 sequence (O75116 11-552): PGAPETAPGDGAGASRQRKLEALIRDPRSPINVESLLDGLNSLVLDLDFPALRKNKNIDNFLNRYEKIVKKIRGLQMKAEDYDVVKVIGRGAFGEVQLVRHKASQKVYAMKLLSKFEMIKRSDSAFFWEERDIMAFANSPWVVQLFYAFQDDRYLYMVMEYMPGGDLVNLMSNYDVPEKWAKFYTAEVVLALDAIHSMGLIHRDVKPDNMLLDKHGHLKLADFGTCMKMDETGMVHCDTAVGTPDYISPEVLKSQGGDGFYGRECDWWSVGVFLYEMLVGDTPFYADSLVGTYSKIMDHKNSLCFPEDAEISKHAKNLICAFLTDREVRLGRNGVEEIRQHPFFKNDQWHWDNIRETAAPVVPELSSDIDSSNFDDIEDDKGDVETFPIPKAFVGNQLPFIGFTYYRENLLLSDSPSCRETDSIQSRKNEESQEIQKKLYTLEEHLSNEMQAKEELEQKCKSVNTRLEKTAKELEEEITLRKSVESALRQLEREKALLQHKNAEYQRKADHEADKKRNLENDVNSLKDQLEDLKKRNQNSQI
SMILES,IC50 [1] [nM],Selectivity against PKA (recombinant human PKA) [fold],Selectivity against PKG [2] [fold]
"CCC(N)[C@]1(C2CCOCC2)CC[C@H](Oc2cc3cc[nH]c(=O)c3cc2Cl)CC1 (mixture of isomers) [Example 1, cis-6-[4-(1-Aminopropyl)-4-(tetrahydropyran-4-yl)-cyclohexyloxy]-7-chloro-2H-isoquinolin-1-one]",≤ 10,>1000,>300
"CCC(N)[C@]1(C2CCOCC2)CC[C@H](Oc2cc3cc[nH]c(=O)c3cc2Cl)CC1 (single isomer, unassigned) [Example 2, 6-[4-(1-Aminopropyl)-4-(tetrahydropyran-4-yl)-cyclohexyloxy]-7-chloro-2H-isoquinolin-1-one]",100 to 1000,>10,>1
"CCC1(C(C)N)CCC(Oc2cc3cc[nH]c(=O)c3cc2Cl)CC1 (single isomer, unassigned) [Example 3, 6-[4-(1-Amino-ethyl)-4-ethyl-cyclohexyloxy]-7-chloro-2H-isoquinolin-1-one]",≤ 10,>1000,>1000
"CCC1(C(C)N)CCC(Oc2cc3cc[nH]c(=O)c3cc2Cl)CC1 (single isomer, unassigned) [Example 4, 6-[4-(1-Amino-ethyl)-4-ethyl-cyclohexyloxy]-7-chloro-2H-isoquinolin-1-one]",10 to 100,>300,>100
"CCCC1(C(N)CC)CCC(Oc2cc3cc[nH]c(=O)c3cc2Cl)CC1 (single isomer, unassigned) [Example 5, 6-[4-(1-Amino-propyl)-4-propyl-cyclohexyloxy]-7-chloro-2H-isoquinolin-1-one]",≤ 10,>1000,>1000
"CCCC1(C(N)C2CC2)CCC(Oc2cc3cc[nH]c(=O)c3cc2Cl)CC1 (single isomer, unassigned) [Example 6, 6-[4-(Amino-cyclopropyl-methyl)-4-propyl-cyclohexyloxy]-7-chloro-2H-isoquinolin-1-one]",≤ 10,>1000,>1000
"CCCC1(C(N)C2CC2)CCC(Oc2cc3cc[nH]c(=O)c3cc2Cl)CC1 (single isomer, unassigned) [Example 7, 6-[4-(Amino-cyclopropyl-methyl)-4-propyl-cyclohexyloxy]-7-chloro-2H-isoquinolin-1-one]",10 to 100,>300,>100
"CCC(N)C1(C(C)C)CCC(Oc2cc3cc[nH]c(=O)c3cc2Cl)CC1 (single isomer, unassigned) [Example 8, 6-[4-(1-Amino-propyl)-4-isopropyl-cyclohexyloxy]-7-chloro-2H-isoquinolin-1-one]",≤ 10,>100,>100
"CCC(N)C1(C(C)C)CCC(Oc2cc3cc[nH]c(=O)c3cc2Cl)CC1 (single isomer, unassigned) [Example 9, 6-[4-(1-Amino-propyl)-4-isopropyl-cyclohexyloxy]-7-chloro-2H-isoquinolin-1-one]",10 to 100,>10,>10
"CC(N)C1(CC2CC2)CCC(Oc2cc3cc[nH]c(=O)c3cc2Cl)CC1 (single isomer, unassigned) [Example 10, 6-[4-(1-Amino-ethyl)-4-cyclopropylmethyl-cyclohexyloxy]-7-chloro-2H-isoquinolin-1-one]",≤ 10,>1000,>300
"CC(N)C1(CC2CC2)CCC(Oc2cc3cc[nH]c(=O)c3cc2Cl)CC1 (single isomer, unassigned) [Example 11, 6-[4-(1-Amino-ethyl)-4-cyclopropylmethyl-cyclohexyloxy]-7-chloro-2H-isoquinolin-1-one]",10 to 100,>100,>300
"CCC(N)C1(CC2CC2)CCC(Oc2cc3cc[nH]c(=O)c3cc2Cl)CC1 (single isomer, unassigned) [Example 12, 6-[4-(1-Amino-propyl)-4-cyclopropyl-methyl-cyclohexyl-oxy]-7-chloro-2H-isoquinolin-1-one]",≤ 10,>1000,>300
"CCC(N)C1(CC2CC2)CCC(Oc2cc3cc[nH]c(=O)c3cc2Cl)CC1 (single isomer, unassigned) [Example 13, 6-[4-(1-Amino-propyl)-4-cyclopropyl-methyl-cyclohexyl-oxy]-7-chloro-2H-isoquinolin-1-one]",10 to 100,>10,>10
"CCC(N)C1(Cc2ccccc2)CCC(Oc2cc3cc[nH]c(=O)c3cc2Cl)CC1 (single isomer, unassigned) [Example 31, 6-[4-(1-Amino-propyl)-4-benzyl-cyclohexyloxy]-7-chloro-2H-isoquinolin-1-one]",–,>10,>100
